This test deals with T1, PD-1/PD-L1 interaction (PD-1-Ig / PD-L1-His) (Homo sapiens, UniProt Q9NZQ7).
T1 construct: hPDL1(18-239)-TVMV-His; TVMV protease site linker (C); made in house; host or cells: HEK293T
The test can be described thus: PD-1/PD-L1 Homogenous Time-Resolved Fluorescence (HTRF) binding assay. Conditions: PD-L1-His 10 nM, PD-1-Ig 20 nM, read-out: Range or IC50. The method in brief:
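Human PD-L1-His (10 nM final) was pre-incubated with inhibitor for 15 min, then PD-1-Ig (20 nM final) was added for a further 15 min in dPBS with 0.1% BSA and 0.05% Tween-20. Binding was detected by HTRF using Eu-cryptate anti-Ig (1 nM) and APC anti-His (20 nM).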
On the technique in general: TR-FRET usually uses a lanthanide donor and a delayed reading to cut background.

Read-outs that look alike come from different tables or passages of the source.

T1 sequence (Q9NZQ7 with tags, fused parts or gaps): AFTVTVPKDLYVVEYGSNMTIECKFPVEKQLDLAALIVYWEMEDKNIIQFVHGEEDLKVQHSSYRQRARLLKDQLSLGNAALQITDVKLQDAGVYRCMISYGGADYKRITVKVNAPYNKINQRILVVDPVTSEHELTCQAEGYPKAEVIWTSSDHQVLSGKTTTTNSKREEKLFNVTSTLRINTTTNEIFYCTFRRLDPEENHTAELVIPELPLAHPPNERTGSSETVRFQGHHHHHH

On to `N#Cc1cncc(COc2cc(OCc3cccc(-c4cccc(COc5cc(OCc6cncc(C#N)c6)c(C(=O)NCCCO)cc5Cl)c4Cl)c3Cl)c(Cl)cc2C(=O)NCCCO)c1` [Example 80020], for which, where the note is “IC50 range class”, the IC50 was 90.1 to 1000 nM.
With `CN1CCN(C(=O)c2cc(Cl)c(OCc3cccc(-c4cccc(COc5cc(OCc6cncc(C#N)c6)c(C(=O)N6CCN(C)CC6)cc5Cl)c4Cl)c3Cl)cc2OCc2cncc(C#N)c2)CC1` [Example 80030], the IC50 (IC50 range class) is 0.04 to 20 nM.
In the case of `N#Cc1cncc(COc2cc(OCc3cccc(-c4cccc(COc5cc(OCc6cncc(C#N)c6)c(C(=O)N6CCCC(O)C6)cc5Cl)c4Cl)c3Cl)c(Cl)cc2C(=O)N2CCCC(O)C2)c1` (centres unmarked) [Example 80040], the IC50 (IC50 range class) lay within 20.1 to 90 nM.
Still for that read-out and setting: under `N#Cc1cncc(COc2cc(OCc3cccc(-c4cccc(COc5cc(OCc6cncc(C#N)c6)c(C(=O)N6CCOCC6)cc5Cl)c4Cl)c3Cl)c(Cl)cc2C(=O)N2CCOCC2)c1` [Example 80050] stands 20.1 to 90 nM; under `N#Cc1cncc(COc2cc(OCc3cccc(-c4cccc(COc5cc(OCc6cncc(C#N)c6)c(C(=O)N6CCC(O)CC6)cc5Cl)c4Cl)c3Cl)c(Cl)cc2C(=O)N2CCC(O)CC2)c1` [Example 80060], 0.04 to 20 nM; under `Cc1c(COc2cc(OCc3cncc(C#N)c3)c(C(=O)NCc3ccncn3)cc2Cl)cccc1-c1cccc(COc2cc(OCc3cncc(C#N)c3)c(C(=O)NCc3ccncn3)cc2Cl)c1C` [Example 80090], 90.1 to 1000 nM.
Same read-out and setting: under `Cc1c(COc2cc(OCc3cncc(C#N)c3)c(C(=O)N3CCOCC3)cc2Cl)cccc1-c1cccc(COc2cc(OCc3cncc(C#N)c3)c(C(=O)N3CCOCC3)cc2Cl)c1C` [Example 80100] stands 0.04 to 20 nM.
Take `CC1CCN(C(=O)c2cc(Cl)c(OCc3cccc(-c4cccc(COc5cc(OCc6cncc(C#N)c6)c(C(=O)N6CCC(C)CC6)cc5Cl)c4Cl)c3Cl)cc2OCc2cncc(C#N)c2)CC1` [Example 80120]: the IC50 (numeric IC50) is 105 nM.
On to `N#Cc1cncc(COc2cc(OCc3cccc(-c4cccc(COc5cc(OCc6cncc(C#N)c6)c(C(=O)N6CCS(=O)(=O)CC6)cc5Cl)c4Cl)c3Cl)c(Cl)cc2C(=O)N2CCS(=O)(=O)CC2)c1` [Example 80140], for which, under “IC50 range class”, the concentration for half-maximal inhibition (IC50) fell in the range of 0.04 to 20 nM.
On the same count and under the same terms, under `N#Cc1cncc(COc2cc(OCc3cccc(-c4cccc(COc5cc(OCc6cncc(C#N)c6)c(C(=O)NCC6(CO)CC6)cc5Cl)c4Cl)c3Cl)c(Cl)cc2C(=O)NCC2(CO)CC2)c1` [Example 80160] stands 1000 to 10000 nM.
Same read-out and setting: then `N#Cc1cncc(COc2cc(OCc3cccc(-c4cccc(COc5cc(OCc6cncc(C#N)c6)c(C(=O)NC6COC6)cc5Cl)c4Cl)c3Cl)c(Cl)cc2C(=O)NC2COC2)c1` [Example 80180], with 1000 to 10000 nM.
On the same count and under the same terms, under `N#Cc1cncc(COc2cc(OCc3cccc(-c4cccc(COc5cc(OCc6cncc(C#N)c6)c(C(=O)NCCO)cc5Cl)c4Cl)c3Cl)c(Cl)cc2C(=O)NCCO)c1` [Example 80200] stands 90.1 to 1000 nM; under `N#Cc1cncc(COc2cc(OCc3cccc(-c4cccc(COc5cc(OCc6cncc(C#N)c6)c(C(=O)N6CCSCC6)cc5Cl)c4Cl)c3Cl)c(Cl)cc2C(=O)N2CCSCC2)c1` [Example 80220], 1000 to 10000 nM; under `Cc1c(COc2cc(OCc3cncc(C#N)c3)c(C(=O)N3CCC(=O)CC3)cc2Cl)cccc1-c1cccc(COc2cc(OCc3cncc(C#N)c3)c(C(=O)N3CCC(=O)CC3)cc2Cl)c1C` [Example 80230], 20.1 to 90 nM.
With `N#Cc1cncc(COc2cc(OCc3cccc(-c4cccc(COc5cc(OCc6cncc(C#N)c6)c(C(=O)NCCO)cc5Cl)c4Cl)c3Cl)c(Cl)cc2C(=O)O)c1` [Example 90010], the IC50 (IC50 range class) was 0.04 to 20 nM.
Regarding `N#Cc1cncc(COc2cc(OCc3cccc(-c4cccc(COc5cc(OCc6cncc(C#N)c6)c(C(=O)NC6CC6)cc5Cl)c4Cl)c3Cl)c(Cl)cc2C(=O)O)c1` [Example 90020], the IC50 (IC50 range class) lay within 20.1 to 90 nM.
Regarding `N#Cc1cncc(COc2cc(OCc3cccc(-c4cccc(COc5cc(OCc6cncc(C#N)c6)c(C(=O)NCCCO)cc5Cl)c4Cl)c3Cl)c(Cl)cc2C(=O)O)c1` [Example 90030], for the setting “IC50 range class”, the IC50 was 20.1 to 90 nM.
On the same count and under the same terms, under `N#Cc1cncc(COc2cc(OCc3cccc(-c4cccc(COc5cc(OCc6cncc(C#N)c6)c(C(=O)NCC6(CO)CC6)cc5Cl)c4Cl)c3Cl)c(Cl)cc2C(=O)O)c1` [Example 90040] stands 90.1 to 1000 nM; under `N#Cc1cncc(COc2cc(OCc3cccc(-c4cccc(COc5cc(OCc6cncc(C#N)c6)c(C(=O)NC6COC6)cc5Cl)c4Cl)c3Cl)c(Cl)cc2C(=O)O)c1` [Example 90050], 90.1 to 1000 nM.
Still for that read-out and setting: then `N#Cc1cncc(COc2cc(OCc3cccc(-c4cccc(COc5cc(OCc6cncc(C#N)c6)c(C(=O)NCC6CCCO6)cc5Cl)c4Cl)c3Cl)c(Cl)cc2C(=O)O)c1` (centres unmarked) [Example 90060], with 1000 to 10000 nM.

One may read the IC50 as the point on the concentration scale where inhibition reaches its midpoint.

(Values after US10144706B2 (BRISTOL-MYERS SQUIBB COMPANY, priority 2016, dated 2018).)
